These results are taken from PMC3536056 (Journal of immunology (Baltimore, Md. : 1950), 2012).

One experiment addresses T1, H-2D^b (Mus musculus, UniProt P01899).
T1 sequence (P01899 25-362): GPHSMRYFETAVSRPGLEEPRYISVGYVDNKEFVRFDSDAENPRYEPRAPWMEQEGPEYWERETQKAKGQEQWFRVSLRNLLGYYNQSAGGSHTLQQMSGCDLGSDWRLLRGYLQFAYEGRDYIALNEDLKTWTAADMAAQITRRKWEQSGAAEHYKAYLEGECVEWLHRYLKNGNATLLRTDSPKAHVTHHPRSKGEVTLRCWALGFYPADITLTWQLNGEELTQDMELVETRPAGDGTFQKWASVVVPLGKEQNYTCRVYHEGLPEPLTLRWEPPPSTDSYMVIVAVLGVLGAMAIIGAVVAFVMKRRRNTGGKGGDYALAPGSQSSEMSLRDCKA
T1 sequence (P01887 21-119 partner): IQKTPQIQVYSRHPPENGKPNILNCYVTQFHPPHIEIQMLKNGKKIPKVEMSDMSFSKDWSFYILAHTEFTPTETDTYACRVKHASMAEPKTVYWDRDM
In words: Stability. In kind it is binding. Conditions: for half-life of peptide/H-2D^b complexes: RMA/s cells loaded overnight at 29 °C, washed, decay at 37 °C, flow cytometry; for pMHC stability (in words): versus wild type site V peptide, RMA/s decay at 37 °C. (In flow cytometry, cells or beads pass a laser one at a time.)

The subject of the next experiment is TCR-V T cells. In kind it is cell-based, mice. To be noted: for functional avidity for TCR-V T cells (in words): 10^−7–10^−12 M peptide, versus wild type site V.
The subject of experiment [1] is polyclonal site V-specific T cells. In words: Intracellular IFN-γ, peptide-stimulated polyclonal site V-specific T cells. It is filed as cell-based, mice. To be noted: 10^−7–10^−12 M peptide; versus wild type site V.
For experiment [2], the target named is H-2D^b (mouse (endogenous in RMA/s)). In words: flow cytometry on cells.
The test system of the next experiment is D^b. Conditions: Flu determinants; cited from earlier work.
The next experiment has as its system naïve TCR-V T cells. Briefly: In vivo proliferation of CFSE-labeled naïve TCR-V cells. The arrangement: species or system B6 mice. To be noted: peptide s.c. 100 μg in IFA, or rVV i.v. 10^7 PFU; 3 days.

“Also recorded” adds a separate entry of the source.

On to QAINNLDNL [G490A], for which, at H-2D^b, the “half-life of peptide/H-2D^b complexes” value was around 2.75 h and the “pMHC stability (in words)” value is “formed more stable pMHC than the wild type site V peptide; also recorded: moderately increased stability compared to wt site V; also recorded: modest increase in pMHC stability”. Further, in the experiment on TCR-V T cells, the “reduction of functional avidity for TCR-V T cells” value was “five” and the “functional avidity for TCR-V T cells (in words)” value is given as “not increased”. Besides, the “functional avidity for polyclonal site V-specific T cells (in words)” value in experiment [1] was “not increased”.
As for SV40 TAg site I peptide (…), the half-life of the pMHC complex in experiment [2] was above 4 hours.
Take “PA224–233: dominant D^b-Flu determinant (SSLENFRAYV; UniProt P03433 224-233, looked up, fragment)”: the “estimated half-life of D^b pMHC” value in the experiment on D^b is given as around 16 hours.
In the case of ASNENMETM [NP366–374], the “estimated half-life of D^b pMHC” value in the experiment with D^b was ~ 4 hours.
site V variant peptide G490A (…): in experiment [2], the half-life of the pMHC complex was 2.75 hours.
On the same count and under the same terms, the same measure for SV40 TAg site V peptide (…): 2 hours.
Take site V variant peptide Q489A (…): in experiment [2], the fold increase of relative affinity against wild type site V was found to be 4 fold and the half-life of the pMHC complex was found to be 4 hours.
Turning to AGINNLDNL [Q489A], at H-2D^b, the “half-life of peptide/H-2D^b complexes” value was “approximately 4 hours” and the “pMHC stability (in words)” value is reported as “formed more stable pMHC than the wild type site V peptide; also recorded: most dramatic increase in pMHC stability”. Further, the “functional avidity for TCR-V T cells (in words)” value with TCR-V T cells is given as “not increased”. In addition, the “functional avidity for polyclonal site V-specific T cells (in words)” value in experiment [1] was “not increased”. Moreover, the “TCR-V division on bypassing cross-presentation (in words)” value in the experiment with naïve TCR-V T cells is given as “almost all of the TCR-V cells underwent division”.
SAINNYAQKL [site I, reference compound]: at H-2D^b, the “half-life of peptide/H-2D^b complexes” value is on record as “greater than 4 hours” and the “pMHC stability (in words)” value is given as “most stable”.
